Reference: US20230289968A1, “AUTOMATED ANALYSIS OF CELL CULTURES” (Hoffmann-La Roche Inc., priority 2020, published 2023)

Assays:
[1] = tested on: MDA-MB-231 cells co-cultured with CAFs; test: Breast-cancer-on-chip co-culture with cancer-associated fibroblasts, STAMP apoptosis rate; assay type: cell-based; details: 1 µM doxorubicin, 6:1 cancer:CAF ratio, TLAG = 4 h, 68 hrs
Experimental: MDA-MB-231 cancer cells were co-cultured on-chip +/- cancer-associated fibroblasts (CAFs) and +/- doxorubicin (1 µM) treatment. Final CAF:cancer ratio was 1:6. […] The data are the means of 3 measurements coming from 3 videos of the same experiment (+/- SEM). The data illustrating the MDA-MB-231 without CAFs conditions come from the same videos analyzed for FIG. 4 but with different time-interval resolution.
Cell cultures The MDA-MB-231 cell line, from triple negative breast cancer, was cultured in high-glucose DMEM (GE Healthcare, #SH30081.01) supplemented with 10% fetal bovine serum (Biosera), 1% Penicillin/Streptomycin (Gibco), 1% glutamine (Gibco). The IGR-Pub lung adenocarcinoma cells and the autologous T cells P62 were harvested from the same patient in Institut Gustave Roussy. […]
Having established that the STAMP method accurately monitors cancer death within co-cultures of cancer and T cells, we moved to bi-cultures of cancer cells and cancer-associated fibroblasts (CAFs). […] Since it is well established that CAFs contribute to chemoresistance in various cancer types, by co-culturing primary breast CAFs with the breast cancer MDA-MB-231 cells, we assessed the capacity of ToC to recapitulate the CAF impact on doxorubicin resistance ex vivo.

[2] = tested on: MDA-MB-231 cells; test: Breast-cancer-on-chip culture, time-lapse imaging analysed with STAMP (apoptosis rate, Pdeath); assay type: cell-based; details: 1 µM doxorubicin
Experimental: Cell cultures The MDA-MB-231 cell line, from triple negative breast cancer, was cultured in high-glucose DMEM (GE Healthcare, #SH30081.01) supplemented with 10% fetal bovine serum (Biosera), 1% Penicillin/Streptomycin (Gibco), 1% glutamine (Gibco). The IGR-Pub lung adenocarcinoma cells and the autologous T cells P62 were harvested from the same patient in Institut Gustave Roussy. The IGR-Pub cells were cultured in DMEM F12 (GIBCO) supplemented with 10% fetal bovine serum (Biosera), 1% of Ultroser G (Pall), 1% of Sodium Pyruvate (Gibco) and 1% Penicillin/Streptomycin (GIBCO). P62 T cells were cultured in RPMI-1640 (GE Healthcare) supplemented with 10% human AB serum (Institut Jacques Boy, Reims, France), rIL-2 (20 U/ml, Gibco), 1% of Sodium Pyruvate (Gibco) and 0.1% Penicillin/Streptomycin (Gibco). Primary cancer-associated fibroblasts (CAFs) were isolated and cultured as previously reported. All cell lines were periodically tested to exclude mycoplasma contamination using a qPCR-based method (VenorGem Classic, BioValley, #11-1250). The MDA-MB-231 cell line was authenticated by SRT profiling (GenePrint 10 system, Promega, #B9510). Doxorubicin was purchased from Teva pharmaceuticals (200 mg/ml).
Tumor-on-chip preparation The microfluidic devices were purchased from AIM-Biotech (#DAX-1). Cells were seeded in the central chamber of the DAX-1 chips embedded in a matrix composed of type I rat tail collagen (Thermofisher, #A1048301) at the final concentration of 2.3 mg/ml. Cancer cells were seeded in the gel at a final density of 2×10^6 cells/ml. Autologous T cells were added at final densities of 0.2×10^6 to 2×10^6 cells/ml in order to obtain different ratios (from 10:1 to 1:1) between cancer and T cells. Primary CAFs were added at cancer:CAF 6:1 ratio. The microfluidic devices were incubated for 30 min at 37° C. in a humidified chamber to allow the polymerization of the collagen solution; afterwards, 120 µl of culture medium were added in each lateral chamber. MDA-MB-231 cells in chip were cultured in the same medium used for dish 2D culture, whereas the IGR-Pub/P62 cells co-cultures were cultured in T-cell medium, supplemented with rIL-2 (10 U/ml, GIBCO, #PHC0027). After the addition of the medium, the microfluidic devices were kept for 1 hour in the incubator before transfer to the incubating chamber of the microscope for imaging.
Cell staining Cancer cells were labeled with CellTrace™ Yellow (Thermofisher, #C34567) before seeding in the gel, for the detection in the so-called “red channel” of fluorescence. […] CellTrace™ exists in 4 colours so up to 5 different cell populations could potentially be analysed separately (4 colours + unstained) by staining the cells prior to mixing. […]

## COc1cccc2c1C(=O)c1c(O)c3c(c(O)c1C2=O)C[C@@](O)(C(=O)CO)C[C@@H]3O[C@H]1C[C@H](N)[C@H](O)[C@H](C)O1 [doxorubicin]
[1]
  doxorubicin-dependent apoptotic increase in presence of CAFs: completely impaired
[2]; 3D on-chip (FIG. 4C, right)
  latency in the response to doxorubicin: 20 h
[2]; TLAG = 10 hrs, 3D on-chip
  death rate during the first 20 hrs of treatment: remained at basal level
[2]; after 20 hrs of exposure, TLAG = 10 hrs, 3D on-chip, 72 h
  death rate (apoptosis rate) in 10 hrs-time-intervals: more than 10%
[2]; during the first 2 days, remains high during the 3rd day, T̃ = 16 hr
  Potential of death induction (Pdeath) increase: 3-4 fold
